Our source for the IC50 values is patent US12060347B2 (BRISTOL-MYERS SQUIBB COMPANY, priority 2016, dated 2024).

SMILES strings stand for the structures.

This test concerns the target T1, human PAR4 (Homo sapiens, UniProt Q96RI0).
T1 construct: expressed in transfected cells; host or cells: HEK293 PAR4 Clone 1.2A (BMS Arctic ID 383940)
T1 sequence (Q96RI0 18-385): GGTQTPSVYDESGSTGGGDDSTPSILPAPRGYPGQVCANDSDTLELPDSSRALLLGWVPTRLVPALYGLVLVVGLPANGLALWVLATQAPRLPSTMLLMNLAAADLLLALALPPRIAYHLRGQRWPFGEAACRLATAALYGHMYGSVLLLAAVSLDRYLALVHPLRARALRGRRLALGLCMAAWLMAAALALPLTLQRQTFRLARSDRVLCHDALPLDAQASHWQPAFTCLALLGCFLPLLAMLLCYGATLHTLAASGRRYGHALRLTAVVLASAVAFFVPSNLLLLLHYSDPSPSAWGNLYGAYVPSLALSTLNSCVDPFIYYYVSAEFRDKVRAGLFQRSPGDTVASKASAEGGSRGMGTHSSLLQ
Kind of test: PAR4 FLIPR assay: antagonism of agonist-peptide-induced calcium mobilization in PAR4-expressing HEK293 cells. Format: cell-based. Conditions: H-Ala-Phe(4-F)-[…]NH2-induced intracellular calcium mobilization, 11-point curves.
Consider `Cc1ncc(NC(=O)O[C@H](C)[C@H](C)Oc2cc3sc(-c4cc(Cl)cc5cc(OC(F)F)cnc45)nc3cc2F)cn1` [Example 650, (2R,3S)-3-((2-(6-chloro-3-(difluoromethoxy)quinolin-8-yl)-5-fluorobenzo[d]thiazol-6-yl)oxy)butan-2-yl (2-methylpyrimidin-5-yl)carbamate], for which the IC50 was 5.6 nM.
Next, `Cc1ncc(NC(=O)O[C@H](C)[C@H](C)Oc2cc3sc(-c4cc(Cl)cc5cc(OCC(F)F)cnc45)nc3cc2F)cn1` [Example 651, (2R,3S)-3-((2-(6-chloro-3-(2,2-difluoroethoxy)quinolin-8-yl)-5-fluorobenzo[d]thiazol-6-yl)oxy)butan-2-yl (2-methylpyrimidin-5-yl)carbamate]: 4.3 nM; `CNc1cnc2c(-c3nc4cc(F)c(O[C@@H](C)[C@@H](C)OC(=O)Nc5cnc(C)nc5)cc4s3)cc(Cl)cc2c1` [Example 652, (2R,3S)-3-((2-(6-chloro-3-(methylamino)quinolin-8-yl)-5-fluorobenzo[d]thiazol-6-yl)oxy)butan-2-yl (2-methylpyrimidin-5-yl)carbamate]: 11 nM; `COc1cnc2c(-c3nc4cc(F)c(O[C@@H](C)[C@@H](C)OC(=O)Nc5cnc(C)nc5)cc4s3)cc(C(F)F)cc2c1` [Example 653, (2R,3S)-3-((2-(6-(difluoromethyl)-3-methoxyquinolin-8-yl)-5-fluorobenzo[d]thiazol-6-yl)oxy)butan-2-yl (2-methylpyrimidin-5-yl)carbamate]: 0.83 nM.
In the case of `COc1cnc2c(-c3nc4cc(F)c(O[C@@H](C)[C@@H](C)OC(=O)Nc5cnc(C)nc5)cc4s3)cc(CF)cc2c1` [Example 654, (2R,3S)-3-((5-fluoro-2-(6-(fluoromethyl)-3-methoxyquinolin-8-yl)benzo[d]thiazol-6-yl)oxy)butan-2-yl (2-methylpyrimidin-5-yl)carbamate], the IC50 was found to be 1 nM.
As to `COc1cnc2c(-c3nc4cc(F)c(O[C@@H](C)[C@@H](C)OC(=O)Nc5cnc(C)nc5)cc4s3)cc(C#N)cc2c1` [Example 655, (2R,3S)-3-((2-(6-cyano-3-methoxyquinolin-8-yl)-5-fluorobenzo[d]thiazol-6-yl)oxy)butan-2-yl (2-methylpyrimidin-5-yl)carbamate], the IC50 turned out to be 1.1 nM.
As for `COc1cnc2c(-c3nc4c(C(O)C5(C(F)(F)F)CCC5)cc(OC)cc4s3)cc(Cl)cc2c1` (centres unmarked) [Example 656, (2-(6-chloro-3-methoxyquinolin-8-yl)-6-methoxybenzo[d]thiazol-4-yl)(1-(trifluoromethyl)cyclobutyl)methanol], the IC50 was 2.4 nM.
Consider `COc1cnc2c(-c3nc4cc(F)c(O[C@@H](C)[C@@H](C)OC(=O)Nc5cnc(C)nc5)cc4s3)cc(OC)cc2c1` [Example 657, (2R,3S)-3-((2-(3,6-dimethoxyquinolin-8-yl)-5-fluorobenzo[d]thiazol-6-yl)oxy)butan-2-yl (2-methylpyrimidin-5-yl)carbamate], for which the half-inhibitory concentration (IC50) turned out to be 1.1 nM.
With `COc1cnc2c(-c3nc4c(C(O)C(C)(C)C)cc(OCCOC(=O)Nc5ccncc5)cc4s3)cc(C)cc2n1` (centres unmarked) [Example 658, 2-((4-(1-hydroxy-2,2-dimethylpropyl)-2-(2-methoxy-7-methylquinoxalin-5-yl)benzo[d]thiazol-6-yl)oxy)ethyl pyridin-4-ylcarbamate], the IC50 was found to be 3 nM.
Then `Cc1cc(-c2nc3cc(F)c(O[C@@H](C)[C@@H](C)OC(=O)Nc4cnc(C)nc4)cc3s2)c2ncc(OC(F)F)cc2c1` [Example 659, (2R,3S)-3((2-(3-(difluoromethoxy)-6-methylquinolin-8-yl)-5-fluorobenzo[d]thiazol-6-yl)oxy)butan-2-yl (2-methylpyrimidin-5-yl)carbamate], with 2.1 nM; and `CCOc1cnc2c(-c3nc4cc(F)c(O[C@@H](C)[C@@H](C)OC(=O)Nc5cnc(C)nc5)cc4s3)cc(C)cc2c1` [Example 660, (2R,3S)-3-((2-(3-ethoxy-6-methylquinolin-8-yl)-5-fluorobenzo[d]thiazol-6-yl)oxy)butan-2-yl (2-methylpyrimidin-5-yl)carbamate], with 2 nM; and `CCOc1cnc2c(-c3cc4ccccc4o3)cc(C)cc2n1` [Example 661, 5-(benzofuran-2-yl)-2-ethoxy-7-methylquinoxaline], with 55 nM.
With `COc1ccc(OC(=O)NCCOc2cc(C)c3nc(-c4cc(C)cc5nc(OC)cnc45)sc3n2)cc1` [Example 662, 4-methoxyphenyl (2-((2-(2-methoxy-7-methylquinoxalin-5-yl)-7-methylthiazolo[5,4-b]pyridin-5-yl)oxy)ethyl)carbamate], the 50% inhibitory concentration (IC50) was found to be 77 nM.
Turning to `COc1cc(C(O)C2CCOCC2)c2nc(-c3cc(C)cc4nc(OC)cnc34)sc2c1` (centres unmarked) [Example 663, (6-methoxy-2-(2-methoxy-7-methylquinoxalin-5-yl)benzo[d]thiazol-4-yl)(tetrahydro-2H-pyran-4-yl)methanol], the half-maximal inhibitory concentration (IC50) amounted to 7 nM.
Regarding `COc1cc(C(O)C2(c3ccccc3)CCC2)c2nc(-c3cc(C)cc4nc(OC)cnc34)sc2c1` (centres unmarked) [Example 665, (6-methoxy-2-(2-methoxy-7-methylquinoxalin-5-yl)benzo[d]thiazol-4-yl)(1-phenylcyclobutyl)methanol], the IC50 was determined as 1.7 nM.
For `COc1cc(C(O)C2(OC)CCC2)c2nc(-c3cc(C)cc4nc(OC)cnc34)sc2c1` (centres unmarked) [Example 666, (6-methoxy-2-(2-methoxy-7-methylquinoxalin-5-yl)benzo[d]thiazol-4-yl)(1-methoxycyclobutyl)methanol], the IC50 was 1.1 nM.
Regarding `COc1cc(C(O)C2(C(F)(F)F)CC2)c2nc(-c3cc(C)cc4nc(OC)cnc34)sc2c1` (centres unmarked) [Example 667, (6-methoxy-2-(2-methoxy-7-methylquinoxalin-5-yl)benzo[d]thiazol-4-yl)(1-(trifluoromethyl)cyclopropyl)methanol], the IC50 turned out to be 5.6 nM.
Turning to `COc1cc(C(O)C2(c3ccccc3)CC2)c2nc(-c3cc(C)cc4nc(OC)cnc34)sc2c1` (centres unmarked) [Example 668, (6-methoxy-2-(2-methoxy-7-methylquinoxalin-5-yl)benzo[d]thiazol-4-yl)(1-phenylcyclopropyl)methanol], the IC50 was 7.3 nM.
Consider `COc1cc(C(O)C2(C(F)(F)F)CCC2)c2nc(-c3cc(C)cc4nc(OC)cnc34)sc2c1` (centres unmarked) [Example 669], for which the IC50 worked out at 2.3 nM.
In the case of `COc1cc(C(O)C2(C)CC2)c2nc(-c3cc(C)cc4nc(OC)cnc34)sc2c1` (centres unmarked) [Example 671, (6-methoxy-2-(2-methoxy-7-methylquinoxalin-5-yl)benzo[d]thiazol-4-yl)(1-methylcyclopropyl)methanol], the IC50 turned out to be 1.9 nM.
`COc1cc(C(O)C2(C)CCCCC2)c2nc(-c3cc(C)cc4nc(OC)cnc34)sc2c1` (centres unmarked) [Example 672, (6-methoxy-2-(2-methoxy-7-methylquinoxalin-5-yl)benzo[d]thiazol-4-yl)(1-methylcyclohexyl)methanol]: the half-inhibitory concentration (IC50) came out at 1.9 nM.
`COc1cc(C(O)c2nccs2)c2nc(-c3cc(C)cc4nc(OC)cnc34)sc2c1` (centres unmarked) [Example 673, (6-methoxy-2-(2-methoxy-7-methylquinoxalin-5-yl)benzo[d]thiazol-4-yl)(thiazol-2-yl)methanol]: the IC50 turned out to be 39 nM.
Turning to `COc1cc(C(O)C2(C)CCOCC2)c2nc(-c3cc(C)cc4nc(OC)cnc34)sc2c1` (centres unmarked) [Example 674, (6-methoxy-2-(2-methoxy-7-methylquinoxalin-5-yl)benzo[d]thiazol-4-yl)(4-methyltetrahydro-2H-pyran-4-yl)methanol], the IC50 came to 20 nM.
